Experimental findings from EP0089426A1, “2-Amino-6-biphenylacetic acids” (A.H. ROBINS COMPANY, INCORPORATED, priority 1982, dated 1983) are described below.

Molecules are shown by their SMILES.

A short description of the test: loss of righting test (muscle relaxant activity). The test is classed as in vivo.

For the molecule `Nc1cccc(-c2ccccc2)c1CC(=O)O` [Example 6-phenyl], the “Percent loss of Righting reflex” value is recorded as 0% (Dose 50 mg/kg) and 100% (Dose 100 mg/kg).
